Entries after “also recorded” stand apart in the source; their conditions may differ. Where no end group is shown, it is not given here.
What was measured:
[1] = system: anti-MBP purified from CSF of MS patients; experiment: In vitro neutralization of purified anti-MBP (liquid phase assay, then solid phase radioimmunoassay); format: binding, human; design: key to REACTIVITY WITH ANTI-MBP: + +: complete neutralization; +: partial neutralization; -: insignificant reactivity; conditions: for REACTIVITY WITH ANTI-MBP: purified anti-MBP, peptides 0-10.000 ng, h-MBP 0-1000 ng, 1.5 hours incubation; for neutralization of purified anti-MBP: pooled anti-MBP from 10 different MS patients, peptides up to 10.000 ng, MBP and negative antigen controls up to 1000 ng
Description: (§1) Constant amounts of anti-MBP (15 radioactivity binding units corresponding to 100 for scale expansion purposes = %0) were incubated with increasing amounts of h-MBP (0-1000 ng) or individual peptides of MBP (0-10.000 ng) in a liquid phase assay and after 1.5 hours incubation, free anti-MBP levels were determined in all mixtures. Anti-MBP isolated from 7 individual MS patients or pooled anti-MBP from 10 different MS patients were used in neutralization experiments. Calf thymus histone and human serum albumin were used as negative antigen controls (range: 10-1000 ng). One monoclonal antibody (MAb) to peptide MBP64-78 and a polyclonal rabbit antiserum to peptide MBP1-8 were used as positive antibody controls (Groome, N., Harland, J., and Dawkes, A., Neurochem Int 7:309-317, 1985, Barry, R., Payton. M., and Groome, N., Neurochem Int 2:291-300. 1991). Another mouse monoclonal antibody to epitope 45-50 was used as negative antibody control.
Anti-MBP levels were determined by a solid phase radioimmunoassay with human MBP (Warren, K.G. and Catz, I., Ann Neurol 209:20-25, 1986; Warren, K.G. and Catz, I., Ann Neurol 21:183-187, 1987; and Warren, K.G. and Catz, I., J Neurol Sci 91:143-151. 1989). Free anti-MBP levels were measured in all fractions from affinity chromatography and in all neutralization mixtures. All individual samples were run in quadruplicate using the same iodinated material in order to minimize between-assay variability.

MS patients = experiment: Monitoring for adverse effects after peptide administration; format: in vivo, human
Description: After determining that peptide MBP75-95 neutralized F anti-MBP in vivo for periods in excess of 7 days, it was elected to repeatedly inoculate 10 mg MBP75-95 into the spinal fluid at weekly intervals for 10 weeks. This experiment was conducted, in 3 different patients with chronic progressive MS who have not participated in the single peptide injection project and volunteered for this study. F and B anti-MBP were determined 1-2 weeks prior to the first inoculation, prior to and 30 minutes following each of the 10 injections and again 1 month after the last injection. Cell counts, total protein, glucose, IgG and albumin levels were determined in all CSFs obtained before each of the 10 injections. Prior to the first and after the last injection blood was obtained and analyzed for electrolytes, creatinine, cardiac and liver enzymes and hematology panel.
Blood was obtained before injection as well as 16 and 30 days later and analyzed for electrolytes, creatinine, cardiac and liver enzymes and hematology panel. Spinal fluid was monitored for cell counts, total protein, glucose, IgG and albumin levels.

[2] = system: polyclonal rabbit antiserum to peptide MBP1-8; experiment: Positive antibody control of the neutralization assay; format: binding
Description: as §1

CSF anti-MBP = experiment: Intrathecal peptide administration, CSF anti-MBP by radioimmunoassay; format: in vivo, human
Description: Anti-MBP levels were determined by a solid phase radioimmunoassay with human MBP coated on Immulon microtiter wells. Immulon microtiter wells were coated with 100 µl of 10 µg/ml of MBP (1 µg/well) and incubated overnight at 37°C. After quenching with bovine serum albumin (BSA) and three water washes, the wells were stored at room temperature. Samples of 100 µl of CSF or tissue extracts diluted to 0.010 gm of IgG/l (with 0.01 M Barbitol Buffered Saline (BBS) pH 6.9-7.1. 0.5% BSA and 0.05% Tween 20) were incubated in MBP-coated wells for 1-2 hours at room temperature. After 5 buffer washes (with 0.01 M BBS, 0.5 BSA and 0.05% Tween 20), wells were incubated with goat anti-rabbit IgG-Fc specific (in 0.01 M BBS, 0.05% Tween 20, 0.5% BSA) for 1 hour at room temperature and then rinsed as above. Finally, ^125I-protein A (or ^125 I-protein G) was added and incubated for 1 hour at room temperature. When ^125I-protein G was used as a tracer, ovalbumin replaced BSA in assay buffer and for quenching. After three final water washes wells were individually counted. Results are expressed in radioactivity defined as: (counts of sample - counts of blank) ÷ (counts of total radioactivity - counts of blank). All samples are run in 10 replicate and counting time is 10 minutes in order to collect > 10,000 counts for any positive sample.
Prior to being assayed all CSF and/or tissue samples were diluted to a final IgG concentration of 0.010 g/l. F anti-MBP was detected directly in CSF or tissue extract while B levels of antibody were determined following acid hydrolysis of immune complexes with glycine HCl buffer pH 2.2. Non-specific binding was performed for each sample in uncoated wells. For epitope localization, synthetic peptides were firstly reacted with purified antibody in a liquid phase competitive assay and then anti-MBP was determined by radioimmunoassay in all resulting supernatants. Results of the combined competitive binding assay and radioimmunoassay were expressed as percent inhibition of synthetic peptide defined as 100 - radioactivity units. Samples were done in 10 replicates and counted for 10 minutes each in a LKB1275 Minigamma counter. […]
A Phase 1 experiment to determine the effect of synthetic peptide MBP75-95 on F and B titers of CSF anti-MBP was conducted. […] 14 patients volunteered for this study: eight patients were selected on the basis of their initial titre of F CSF anti-MBP (above 8 radioactivity units) (Table 2) to receive one intrathecal injection of either peptide MBP75-95 which bound anti-MBP in vitro or a non-binding control peptide MBP35-58 (Warren and Catz, 1993b). […] Cell counts, total protein, glucose, IgG and albumin levels were determined in all CSF samples obtained. F and B anti-MBP levels were determined by radioimmunoassay, as described above. […]

[3] = system: F and B anti-MBP purified by affinity chromatography from CSF and MS brain tissue; experiment: Competitive inhibition assay with decapeptides (MBP epitope localization); format: binding, human; conditions: purified F and B anti-MBP from MS brain tissue (Fig. 10); percent inhibition = 100 - radioactivity units
Description: Prior to being assayed all CSF and/or tissue samples were diluted to a final IgG concentration of 0.010 g/l. F anti-MBP was detected directly in CSF or tissue extract while B levels of antibody were determined following acid hydrolysis of immune complexes with glycine HCl buffer pH 2.2. Non-specific binding was performed for each sample in uncoated wells. For epitope localization, synthetic peptides were firstly reacted with purified antibody in a liquid phase competitive assay and then anti-MBP was determined by radioimmunoassay in all resulting supernatants. Results of the combined competitive binding assay and radioimmunoassay were expressed as percent inhibition of synthetic peptide defined as 100 - radioactivity units. Samples were done in 10 replicates and counted for 10 minutes each in a LKB1275 Minigamma counter. A pool of tissue-purified anti-MBP was used at 5 pre-established dilutions as positive controls. Pooled CSF from patients with non-neurological diseases was used as negative controls. Within assay reproducibility was between 3 and 5% and between assay variation was less than 7 %.
The peptide(s) producing maximum inhibition were considered to be most highly associated with the antibody binding site.

[4] = Solubility in normal saline

For “18-32: synthetic peptide of human MBP sequence 18-32 (NSETNRGESEKKRNL; UniProt P02686 18-32, looked up, fragment)”, the “REACTIVITY WITH ANTI-MBP” value [1] was “-”.

In the case of “26 - 40: synthetic peptide of human MBP sequence 26-40 (SEKKRNLGELSRTTS; UniProt P02686 26-40, looked up, fragment)”, the “REACTIVITY WITH ANTI-MBP” value [1] is reported as “-”.

For “117 - 129: synthetic peptide of human MBP sequence 117-129 (LQTIQEDSAATSE; UniProt P02686 117-129, looked up, fragment)”, the “REACTIVITY WITH ANTI-MBP” value [1] was “-”.

For “141 - 155: synthetic peptide of human MBP sequence 141-155 (SQRHGSKYLATASTM; UniProt P02686 141-155, looked up, fragment)”, the “REACTIVITY WITH ANTI-MBP” value [1] was “-”.

With “Cy 4 - 18: synthetic peptide of human MBP sequence 4-18 with cysteine (HAGKRELNAEKASTN; also: added cysteine, end not given here; UniProt P02686 4-18, looked up, fragment)” the “REACTIVITY WITH ANTI-MBP” value [1] was “-”.

In the case of “Cy 11 - 24: synthetic peptide of human MBP sequence 11-24 with cysteine (NAEKASTNSETNRG; also: added cysteine, end not given here; UniProt P02686 11-24, looked up, fragment)”, the “REACTIVITY WITH ANTI-MBP” value [1] is reported as “-”.

With “Cy 51 - 64 Gly: synthetic peptide of human MBP sequence 51-64 with cysteine and Gly (ANQNNGTSSQDTAV; also: added cysteine and glycine, ends not given here; UniProt P02686 51-64, looked up, fragment)” the “REACTIVITY WITH ANTI-MBP” value [1] was “+”.

In the case of “Cy 127 - 140: synthetic peptide of human MBP sequence 127-140 with cysteine (TSESLDVMASQKRP; also: added cysteine, end not given here; UniProt P02686 127-140, looked up, fragment)”, the “REACTIVITY WITH ANTI-MBP” value [1] is reported as “-”.

In the case of “Cy 136 - 149: synthetic peptide of human MBP sequence 136-149 with cysteine (SQKRPSQRHGSKYL; also: added cysteine, end not given here; UniProt P02686 136-149, looked up, fragment)”, the “REACTIVITY WITH ANTI-MBP” value [1] is reported as “-”.

In the case of HHPARTAHYGSLPQK [MBP61-75], the “neutralization of purified anti-MBP” value [1] is reported as “partially neutralized” and the “REACTIVITY WITH ANTI-MBP” value [1] is reported as “+”.

With KSHGRTQDENPVVHFFKNIVT [MBP75-95] the adverse effects (MS patients; 500 mg intravenously over 30 minutes, patient 8M41) was “No adverse effects were observed” and the “adverse effects / systemic complications” value (MS patients; repeated intrathecal inoculations, electrolytes, cardiac-liver-kidney function, hematology) was “no adverse complications have occurred”.

With “MBP1-8: synthetic peptide of human MBP sequence 1-8 with cysteine (MGNHAGKR; also: added cysteine, end not given here; UniProt P02686 1-8, looked up, fragment)” the “REACTIVITY WITH ANTI-MBP” value [1] was “-” and the “inhibition of MAb to peptide MBP 1-8” value [2] was “inhibited”.

For “MBP35-58: non-binding, control synthetic peptide of human MBP residues 35-58 (LSRTTSEDNEVFGEADANQNNGTS; also: added cysteine, end not given here; UniProt P02686 35-58, looked up, fragment)”, the “REACTIVITY WITH ANTI-MBP” value [1] was “-”, the “F and B levels of CSF anti-MBP” value (CSF anti-MBP; one intrathecal injection of 1, 2.5, 5 and 10 mg, 24 hour experiment) was “remained unaffected; also recorded: remained unchanged” and the “F anti-MBP in CSF” value (CSF anti-MBP; one intrathecal injection, 5 mg) was “remained elevated at baseline level”. For the same substance, the “F anti-MBP in CSF” value (CSF anti-MBP; one intrathecal injection, 10 mg) was “persistently elevated” and the “CSF F anti-MBP over increasing doses” value (CSF anti-MBP; one intrathecal injection, increasing amounts 1, 2.5, 5 and 10 mg) was “did not react”.

With “MBP51 -60: decapeptide of human MBP residues 51-60, negative control (ANQNNGTSSQ; UniProt P02686 51-60, looked up, fragment)” the “percent inhibition of both F and B anti-MBP” value [3] was 0-10%.

With “MBP 111 -120: decapeptide of human MBP residues 111-120, negative control (PSESDELQTI; UniProt P02686 111-120, looked up, fragment)” the “percent inhibition of both F and B anti-MBP” value [3] was 0-10%.

For “Thr Gln Asp Glu Asn Pro Val Val His Phe Phe Lys Asn Ile Val Thr Pro Arg (TQDENPVVHFFKNIVTPR; printed: Thr Gln Asp Glu Asn Pro Val Val His Phe Phe Lys Asn Ile Val Thr Pro Arg) [MBP80-97]”, the “neutralization of anti-MBP purified from 7 individual MS patients” value ([1]; anti-MBP of individual patients) was “completely neutralized”, the “neutralization of purified anti-MBP” value [1] was “completely neutralized” and the “REACTIVITY WITH ANTI-MBP” value [1] was “+ +”. The “times less effective on a molar basis than intact MBP at causing inhibition” value ([1]; relative to intact MBP) was “approximately 100 times”.

For “VVHFFKNIVT [MBP86-95, Val Val His Phe Phe Lys Asn Ile Val Thr]”, the solubility [4] was “very low solubility”.
